Source: US20250171413A1, “ANTIVIRAL INDOLINYL COMPOUNDS AND USES THEREOF” (Gilead Sciences, Inc., priority 2023, published 2025)
Where two headings read alike, the source gives them in different places.

Test system: HSV-2 virus (MS strain)
Test: HSV-2 Cellomics Assay (immunofluorescence of HSV protein gD)
Assay type: cell-based
Conditions: Human alphaherpesvirus 2, HSV-2 (MS strain, MOI 0.06) infected ARPE-19 cells, 16 hours
Procedure: Compounds were tested for their ability to inhibit HSV-2 replication by monitoring the expression of the HSV protein gD using a high-throughput immunofluorescence-based assay. 10-dose, 3-fold serial dilutions of compounds were prepared at starting concentrations of 0.2 or 2 mM in 100% DMSO. 250 nl of compounds were spotted in quadruplicates onto black collagen-coated 384-well microplates with clear bottom (Greiner cat #781956) using a Labcyte ECHO acoustic dispenser. The final starting concentration in the assay was either […]. DMSO (no compound) and pritelivir were included on each microplate as negative and positive controls, respectively.
ARPE-19 cells (ATCC cat #CRL-2302) were maintained DMEM/F-12 Glutamax medium (Thermo Fisher Scientific cat #10565018) supplemented with 10% FBS (Corning cat #35-011-CV) and 1% Penicillin-Streptomycin (cat #30-002-CI). Prior to confluence, cells were transferred to a centrifuge tube and spun for 5 minutes at 1000 rpm. Cells were resuspended in assay medium (DMEM/F-12 Glutamax, 2% FBS, 1% Penicillin-Streptomycin) and counted. Cell density was adjusted to 150,000 cells/ml and infected with HSV-2 virus (MS strain, ATCC cat #VR-540) at a MOI of 0.06 in a 50 ml conical tube for 1 hour under constant rocking. Cells were then spun for 5 minutes at 1000 rpm and the media replaced with assay medium containing either 2% FBS or 10% human serum (EMD Millipore cat #S1-100ML). 50 μl of the infection suspension were added into microplate wells that were pre-spotted with compounds (7,500 cells per well). Plates were incubated for 16 hours at 37° C.
Cell culture medium was aspirated using a Biomek Fx and 50 μl of a paraformaldehyde solution (Electron Microscopy Sciences cat #15712-5) diluted to 4% in DPBS (Corning cat #21-031-CM) were added per well. After a 30-minute incubation at room temperature, plates were washed 4 times with 100 μl/well of PBS using a Biotek plate washer. A 1:500 solution of primary antibody (anti-HSV gD, Virusys cat #P1103) was prepared in permeabilization buffer (Invitrogen cat #00-8333-56) and 50 μl were added into wells. After a 1-hour incubation at room temperature, 50 μl of a 1:1000 solution of secondary antibody (Alexa Fluor 488 goat anti-mouse, Thermo Fisher Scientific cat #A11001) and DAPI (Thermo Fisher Scientific cat #62248) in permeabilization buffer were added into wells and plates were incubated in the dark at room temperature for 1 hour. Plates were washed 4 times again and 50 μl of DPBS were added to all wells prior to sealing the plates with a black adhesive seal. Fluorescence was measured on a Cellomics plate reader.
Data analysis was carried out using the Thermo Scientific HCS Studio software. Briefly, cells were identified using the DAPI nuclear stain and thresholds were set to filter cells out based on shape and size. A second threshold based on green fluorescence intensity (detection of HSV-2 gD) was set to identify HSV-2 infected cells. Data was reported as the average fluorescence intensity of HSV-2 infected cells. EC50 values were defined as the compound concentration that caused a 50% decrease in the average fluorescence intensity and was calculated using a sigmoidal dose-response model to generate curve fits.

[1] = assay medium containing 2% FBS, read-out: EC50-HSV2-FBS
[2] = assay medium containing 10% human serum, read-out: EC50-HSV2-10% Human Serum

Structure (SMILES) | EC50 [1] [nM] | EC50 [2] [nM]
CC[S@@](=N)(=O)c1cc2c(cc1F)CCN2C(=O)[C@@H]1Cc2ccc(-c3ccccn3)cc2C1 [Example 2, (R)-ethyl(5-fluoro-1-((R)-5-(pyridin-2-yl)-2,3-dihydro-1H-indene-2-carbonyl)indolin-6-yl)(imino)-λ^6-sulfanone] | 18 | 71
CC[S@](=N)(=O)c1cc2c(cc1F)CCN2C(=O)[C@@H]1Cc2ccc(-c3ccccn3)cc2C1 [Example 3, (S)-ethyl(5-fluoro-1-((R)-5-(pyridin-2-yl)-2,3-dihydro-1H-indene-2-carbonyl)indolin-6-yl)(imino)-λ^6-sulfanone] | 73 | 258
CC[S@](=N)(=O)c1cc2c(cc1F)CCN2C(=O)[C@H]1Cc2cc(-c3ccccn3)ccc2O1 [Example 5, (S)-ethyl(5-fluoro-1-((R)-5-(pyridin-2-yl)-2,3-dihydrobenzofuran-2-carbonyl)indolin-6-yl)(imino)-λ^6-sulfanone] | 178 | 474
CC[S@@](=N)(=O)c1cc2c(cc1F)CCN2C(=O)[C@H]1Cc2cc(-c3ccccn3)ccc2O1 [Example 6, (R)-ethyl(5-fluoro-1-((R)-5-(pyridin-2-yl)-2,3-dihydrobenzofuran-2-carbonyl)indolin-6-yl)(imino)-λ^6-sulfanone] | 40 | 81
CCC[S@@](=N)(=O)c1cc2c(cc1F)CCN2C(=O)[C@@H]1Cc2ccc(-c3ccccn3)cc2C1 [Example 8, (R)-(5-fluoro-1-((R)-5-(pyridin-2-yl)-2,3-dihydro-1H-indene-2-carbonyl)indolin-6-yl)(imino)(propyl)-λ^6-sulfanone] | 16 | 77
CCC[S@](=N)(=O)c1cc2c(cc1F)CCN2C(=O)[C@@H]1Cc2ccc(-c3ccccn3)cc2C1 [Example 9, (S)-(5-fluoro-1-((R)-5-(pyridin-2-yl)-2,3-dihydro-1H-indene-2-carbonyl)indolin-6-yl)(imino)(propyl)-λ^6-sulfanone] | 52 | 218
CCC[S@](=N)(=O)c1cc2c(cc1F)CCN2C(=O)[C@H]1Cc2cc(-c3ccccn3)ccc2O1 [Example 11, (S)-(5-fluoro-1-((R)-5-(pyridin-2-yl)-2,3-dihydrobenzofuran-2-carbonyl)indolin-6-yl)(imino)(propyl)-λ^6-sulfanone] | 124 | 406
CCC[S@@](=N)(=O)c1cc2c(cc1F)CCN2C(=O)[C@H]1Cc2cc(-c3ccccn3)ccc2O1 [Example 12, (R)-(5-fluoro-1-((R)-5-(pyridin-2-yl)-2,3-dihydrobenzofuran-2-carbonyl)indolin-6-yl)(imino)(propyl)-λ^6-sulfanone] | 35 | 98
COCCS(=N)(=O)c1cc2c(cc1F)CCN2C(=O)[C@@H]1Cc2ccc(-c3ccccn3)cc2C1 (stereo partly drawn) [Example 13, (5-fluoro-1-((R)-5-(pyridin-2-yl)-2,3-dihydro-1H-indene-2-carbonyl)indolin-6-yl)(imino)(2-methoxyethyl)-16-sulfanone] | 31 | 55
COCC[S@@](=N)(=O)c1cc2c(cc1F)CCN2C(=O)[C@@H]1Cc2ccc(-c3ccccn3)cc2C1 [Example 14, (R)-(5-fluoro-1-((R)-5-(pyridin-2-yl)-2,3-dihydro-1H-indene-2-carbonyl)indolin-6-yl)(imino)(2-methoxyethyl)-λ^6-sulfanone] | 25 | 54
COCC[S@](=N)(=O)c1cc2c(cc1F)CCN2C(=O)[C@@H]1Cc2ccc(-c3ccccn3)cc2C1 [Example 15, (S)-(5-fluoro-1-((R)-5-(pyridin-2-yl)-2,3-dihydro-1H-indene-2-carbonyl)indolin-6-yl)(imino)(2-methoxyethyl)-λ6-sulfanone] | 42 | 87
COCC[S@@](=N)(=O)c1cc2c(cc1F)CCN2C(=O)[C@H]1Cc2cc(-c3ccccn3)ccc2O1 [Example 17, (R)-(5-fluoro-1-((R)-5-(pyridin-2-yl)-2,3-dihydrobenzofuran-2-carbonyl)indolin-6-yl)(imino)(2-methoxyethyl)-λ^6-sulfanone] | 39 | 59
COCC[S@](=N)(=O)c1cc2c(cc1F)CCN2C(=O)[C@H]1Cc2cc(-c3ccccn3)ccc2O1 [Example 18, (S)-(5-fluoro-1-((R)-5-(pyridin-2-yl)-2,3-dihydrobenzofuran-2-carbonyl)indolin-6-yl)(imino)(2-methoxyethyl)-λ^6-sulfanone] | 92 | 208
N=S(=O)(c1cc2c(cc1F)CCN2C(=O)[C@@H]1Cc2ccc(-c3ccccn3)cc2C1)C1CC1 (stereo partly drawn) [Example 19, cyclopropyl(5-fluoro-1-((R)-5-(pyridin-2-yl)-2,3-dihydro-1H-indene-2-carbonyl)indolin-6-yl)(imino)-λ^6-sulfanone] | 56 | 453
N=[S@](=O)(c1cc2c(cc1F)CCN2C(=O)[C@@H]1Cc2ccc(-c3ccccn3)cc2C1)C1CC1 [Example 20, (R)-cyclopropyl(5-fluoro-1-((R)-5-(pyridin-2-yl)-2,3-dihydro-1H-indene-2-carbonyl)indolin-6-yl)(imino)-λ^6-sulfanone] | 33 | 248
N=[S@@](=O)(c1cc2c(cc1F)CCN2C(=O)[C@@H]1Cc2ccc(-c3ccccn3)cc2C1)C1CC1 [Example 21, (S)-cyclopropyl(5-fluoro-1-((R)-5-(pyridin-2-yl)-2,3-dihydro-1H-indene-2-carbonyl)indolin-6-yl)(imino)-λ^6-sulfanone] | 98 | 949
CN=S(C)(=O)c1cc2c(cc1F)CCN2C(=O)[C@@H]1Cc2ccc(-c3ccccn3)cc2C1 (stereo partly drawn) [Example 22, (5-fluoro-1-((R)-5-(pyridin-2-yl)-2,3-dihydro-1H-indene-2-carbonyl)indolin-6-yl)(methyl)(methylimino)-l6-sulfanone] | 211 | 737
CN=[S@](C)(=O)c1cc2c(cc1F)CCN2C(=O)[C@@H]1Cc2ccc(-c3ccccn3)cc2C1 [Example 23, (R)-(5-fluoro-1-((R)-5-(pyridin-2-yl)-2,3-dihydro-1H-indene-2-carbonyl)indolin-6-yl)(methyl)(methylimino)-λ^6-sulfanone] | 155 | 522
CCS(=N)(=O)c1cc2c(cc1F)CC(C)N2C(=O)[C@@H]1Cc2ccc(-c3ccccn3)cc2C1 (stereo partly drawn) [Example 25, ethyl(5-fluoro-2-methyl-1-((R)-5-(pyridin-2-yl)-2,3-dihydro-1H-indene-2-carbonyl)indolin-6-yl)(imino)-λ^6-sulfanone] | 72 | 203
CC[S@@](=N)(=O)c1cc2c(cc1F)C[C@@H](C)N2C(=O)[C@@H]1Cc2ccc(-c3ccccn3)cc2C1 [Example 26, (R)-ethyl((R)-5-fluoro-2-methyl-1-((R)-5-(pyridin-2-yl)-2,3-dihydro-1H-indene-2-carbonyl)indolin-6-yl)(imino)-λ^6-sulfanone] | 30 | 92
CC[S@](=N)(=O)c1cc2c(cc1F)C[C@@H](C)N2C(=O)[C@@H]1Cc2ccc(-c3ccccn3)cc2C1 [Example 27, (S)-ethyl((R)-5-fluoro-2-methyl-1-((R)-5-(pyridin-2-yl)-2,3-dihydro-1H-indene-2-carbonyl)indolin-6-yl)(imino)-λ^6-sulfanone] | 55 | 113
CCNS(=O)(=O)c1cc2c(cc1F)CCN2C(=O)[C@@H]1Cc2ccc(-c3ccccn3)cc2C1 [Example 30, (R)—N-ethyl-5-fluoro-1-(5-(pyridin-2-yl)-2,3-dihydro-1H-indene-2-carbonyl)indoline-6-sulfonamide] | 5 | 304
CCNS(=O)(=O)c1cc2c(cc1F)CCN2C(=O)[C@H]1Cc2cc(-c3ccccn3)ccc2O1 [Example 31, (R)—N-ethyl-5-fluoro-1-(5-(pyridin-2-yl)-2,3-dihydrobenzofuran-2-carbonyl)indoline-6-sulfonamide] | 10 | 570
